In patent US20240277603A1, “COSMETIC USE OF AN OILY EXTRACT FROM DISTILLATION RESIDUE OF IMMORTELLE AS A SKIN BRIGHTENING AGENT” (LABORATOIRES M&L, priority 2021, published 2024):

Columns and labels:
mouse B16 melanocytes [1] = experiment: Inhibition of melanin production by NDP-MSH-stimulated B16 melanocytes (melanin assay, absorbance at 405 nm); type: cell-based; conditions: for inhibition of pigmentation (melanin production): Example 3, FIG. 3, B16 + NDP-MSH, extract 0.035%, hexylresorcinol 5 μg/mL, alone or combined, kojic acid and vitamin C positive controls; for efficacy as positive control for pigmentation inhibition (melanin production): Example 2, FIGS. 1 and 2, B16 + 0.1 μM NDP-MSH, 72 h, kojic acid 3 mM, vitamin C (ascorbyl glucoside) 0.5%, ***p<0.001, ****p<0.0001
Experimental: All the conditions were tested in triplicate.
For the melanin assay, the medium in each well was aspirated and the cells lyzed by adding 50 μl of 1M NaOH to the cell lawn. The plates were shaken for 30 minutes at room temperature, and the lyzate was then transferred to glass flasks and incubated overnight at 95° C. After incubation, the lyzates were centrifuged at 2000 rpm to remove the cell debris. The absorbance of the supernatant was read at 405 nm, reflecting the amount of melanin in each well, and the average of the three replicates was determined for each condition. A well of cells not treated with NDP-MSH was used as a control, and its OD value subtracted from all the OD values of the other wells. The percentage of melanin inhibition was then calculated according to the formula:
100−((melanin amount in test condition/melanin amount in untreated control)×100)
The significance of the results was evaluated using a one-way Anova test (for the distillation residue extract and the oily extract of flowering tops) or Student's t test (for kojic acid and vitamin C).
The results were compared with the effect obtained with the extract according to the invention alone and hexylresorcinol alone, used at the same doses.

mouse B16 melanocytes [2] = conditions: Example 3, preliminary cytotoxicity study on the cells
Experimental: Melanocytes (mouse line B16) were seeded in 96-well plates at 2000 cells per well in phenol red-free DMEM medium containing 10% fetal calf serum, 2 mM glutamine, 1 mM sodium pyruvate and 100 μg/ml normocin. The following day, the cells were treated with 0.1 μM of NDP-MSH to induce pigmentation. Under the test conditions, in the presence of NDP-MSH, kojic acid at 3 mM and vitamin C (ascorbyl glucoside) at 0.5% were used as positive controls for pigmentation inhibition, and the extracts to be evaluated were tested at several concentrations. All the conditions were tested in triplicate. The cells were incubated at 37° C., 5% CO2 for 72 h in the presence of the extracts and positive controls.

Structure (SMILES)	inhibition of pigmentation (melanin production) (mouse B16 melanocytes [1])	maximum non-cytotoxic dose (mouse B16 melanocytes [2]) [µg/mL]	efficacy as positive control for pigmentation inhibition (melanin production) (mouse B16 melanocytes [1])
CCCCCCc1ccc(O)cc1O [hexylresorcinol, 4-hexyl-1,3-phenylenediol]	confirms the depigmenting efficacy	10	–
O=c1cc(CO)occ1O [kojic acid]	demonstrating the efficacy	–	demonstrating the efficacy
O=C1O[C@H]([C@@H](O)CO)C(O)=C1O[C@H]1O[C@H](CO)[C@@H](O)[C@H](O)[C@H]1O [vitamin C, ascorbyl glucoside]	demonstrating the efficacy	–	demonstrating the efficacy
